According to patent US20240116892A1, “HETEROCYCLIC AMIDE AND UREA COMPOUNDS AS JAK2 INHIBITORS” (Ajax Therapeutics, Inc., priority 2022, published 2024):
pKd: −log10 of the molar value.

These compounds were tested against JAK2 (JH1 domain-catalytic, Y1007F, Y1008F) kinase (Homo sapiens (Human), UniProt O60674, Y1007F/Y1008F) (assay: JAK2 JH1 Domain Binding Assay). Details: qPCR readout.
Summary of the method: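 JH1 catalytic domain (Y1007F/Y1008F) expressed as NFkB DNA-binding-domain fusion in HEK293 cells, DNA-tagged. Competition with immobilized biotinylated ligand on streptavidin beads, 1 h at RT in PBS/Tween/BSA/DTT; bound kinase eluted with free ligand and quantified by qPCR.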

Chain of JAK2 (JH1 domain-catalytic, Y1007F, Y1008F) kinase (O60674 849-1124 Y1007F/Y1008F): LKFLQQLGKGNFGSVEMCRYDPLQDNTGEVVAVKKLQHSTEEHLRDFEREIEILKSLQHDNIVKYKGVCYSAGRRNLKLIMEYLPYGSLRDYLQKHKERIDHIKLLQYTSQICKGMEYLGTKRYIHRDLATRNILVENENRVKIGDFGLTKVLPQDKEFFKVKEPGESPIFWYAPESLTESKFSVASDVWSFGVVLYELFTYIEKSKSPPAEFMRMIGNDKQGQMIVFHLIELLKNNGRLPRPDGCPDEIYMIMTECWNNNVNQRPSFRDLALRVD

COc1n[nH]c2ncc(N3CC[C@@H](N(C)C(=O)Nc4cc(C(F)(F)F)cn(C)c4=O)[C@@H](F)C3)cc12 [Example I-87-a, 1-((3S,4R)-3-fluoro-1-(3-methoxy-1H-pyrazolo[3,4-b]pyridin-5-yl)piperidin-4-yl)-1-methyl-3-(1-methyl-2-oxo-5-(trifluoromethyl)-1,2-dihydropyridin-3-yl)urea] and COc1n[nH]c2ncc(N3CC[C@H](N(C)C(=O)Nc4cc(C(F)(F)F)cn(C)c4=O)[C@H](F)C3)cc12 [Example I-87-b, 1-((3R,4S)-3-fluoro-1-(3-methoxy-1H-pyrazolo[3,4-b]pyridin-5-yl)piperidin-4-yl)-1-methyl-3-(1-methyl-2-oxo-5-(trifluoromethyl)-1,2-dihydropyridin-3-yl)urea] cannot be ordered by pKd: over 8.00 for the first, over 8.00 for the second.

CO[C@H]1CN(c2cnc3[nH]ncc3c2)CC[C@H]1N(C)C(=O)Nc1cc(C(F)(F)F)cn(C)c1=O [Example I-88-a, 1-((3S,4R)-3-methoxy-1-(1H-pyrazolo[3,4-b]pyridin-5-yl)piperidin-4-yl)-1-methyl-3-(1-methyl-2-oxo-5-(trifluoromethyl)-1,2-dihydropyridin-3-yl)urea] and CO[C@@H]1CN(c2cnc3[nH]ncc3c2)CC[C@@H]1N(C)C(=O)Nc1cc(C(F)(F)F)cn(C)c1=O [Example I-88-b, 1-((3R,4S)-3-methoxy-1-(1H-pyrazolo[3,4-b]pyridin-5-yl)piperidin-4-yl)-1-methyl-3-(1-methyl-2-oxo-5-(trifluoromethyl)-1,2-dihydropyridin-3-yl)urea] cannot be ordered by pKd: over 8.00 for the first, over 8.00 for the second.

CN(C(=O)Nc1cc(C(F)(F)F)cn(C)c1=O)[C@@H]1CCN(c2cnc3[nH]n(C)c(=O)c3c2)C[C@@H]1F [Example I-89-a, 1-((3S,4R)-3-fluoro-1-(2-methyl-3-oxo-2,3-dihydro-1H-pyrazolo[3,4-b]pyridin-5-yl)piperidin-4-yl)-1-methyl-3-(1-methyl-2-oxo-5-(trifluoromethyl)-1,2-dihydropyridin-3-yl)urea] and CN(C(=O)Nc1cc(C(F)(F)F)cn(C)c1=O)[C@H]1CCN(c2cnc3[nH]n(C)c(=O)c3c2)C[C@H]1F [Example I-89-b, 1-((3R,4S)-3-fluoro-1-(2-methyl-3-oxo-2,3-dihydro-1H-pyrazolo[3,4-b]pyridin-5-yl)piperidin-4-yl)-1-methyl-3-(1-methyl-2-oxo-5-(trifluoromethyl)-1,2-dihydropyridin-3-yl)urea] fall in the same range of pKd: 7.30 to 8.00 for the first, 7.30 to 8.00 for the second.

CN(C(=O)Nc1cc(C(F)(F)F)cn(C)c1=O)[C@@H]1CCN(c2cnc3[nH]n(C)c(=O)c3c2)C[C@H]1F [Example I-90-b, 1-((3R,4R)-3-fluoro-1-(2-methyl-3-oxo-2,3-dihydro-1H-pyrazolo[3,4-b]pyridin-5-yl)piperidin-4-yl)-1-methyl-3-(1-methyl-2-oxo-5-(trifluoromethyl)-1,2-dihydropyridin-3-yl)urea] and CN(C(=O)Nc1cc(C(F)(F)F)cn(C)c1=O)[C@@H]1CCN(c2cnc3[nH]n(C)c(=O)c3c2)CC1(F)F [Example I-96-a, (R)-1-(3,3-difluoro-1-(2-methyl-3-oxo-2,3-dihydro-1H-pyrazolo[3,4-b]pyridin-5-yl)piperidin-4-yl)-1-methyl-3-(1-methyl-2-oxo-5-(trifluoromethyl)-1,2-dihydropyridin-3-yl)urea] fall in the same range of pKd: 7.30 to 8.00 for the first, 7.30 to 8.00 for the second.

First: CN(C(=O)Nc1cc(C(F)(F)F)cn(C)c1=O)C1CCN(c2cnc3cncn3c2)CC1 [Example I-91, 1-(1-(imidazo[1,5-a]pyrimidin-3-yl)piperidin-4-yl)-1-methyl-3-(1-methyl-2-oxo-5-(trifluoromethyl)-1,2-dihydropyridin-3-yl)urea]
Second: CNc1cn2ncc(N3CCC(N(C)C(=O)Nc4cc(C(F)(F)F)cn(C)c4=O)CC3)c2cn1 [Example I-92, 1-methyl-3-(1-methyl-2-oxo-5-(trifluoromethyl)-1,2-dihydropyridin-3-yl)-1-(1-(6-(methylamino)pyrazolo[1,5-a]pyrazin-3-yl)piperidin-4-yl)urea]
The pKd of the first is lower: 6.00 to 7.30 for the first, 7.30 to 8.00 for the second.

Cn1cc(C(F)(F)F)cc(NC(=O)N2CC=CC23CCN(c2cnc4[nH]cc(F)c4n2)CC3)c1=O [Example I-93, 8-(7-fluoro-5H-pyrrolo[2,3-b]pyrazin-2-yl)-N-(1-methyl-2-oxo-5-(trifluoromethyl)-1,2-dihydropyridin-3-yl)-1,8-diazaspiro[4.5]dec-3-ene-1-carboxamide] and Cn1cc(C(F)(F)F)cc(NC(=O)N2CC=CC23CCN(c2cnc4[nH]cc(C#N)c4n2)CC3)c1=O [Example I-98, 8-(7-cyano-5H-pyrrolo[2,3-b]pyrazin-2-yl)-N-(1-methyl-2-oxo-5-(trifluoromethyl)-1,2-dihydropyridin-3-yl)-1,8-diazaspiro[4.5]dec-3-ene-1l-carboxamide] fall in the same range of pKd: 7.30 to 8.00 for the first, 7.30 to 8.00 for the second.

COc1c[nH]c2ncc(N3CCC(N(C)C(=O)Nc4cc(C(F)(F)F)cn(C)c4=O)CC3)cc12 [Example I-94, 1-(1-(3-methoxy-1H-pyrrolo[2,3-b]pyridin-5-yl)piperidin-4-yl)-1-methyl-3-(1-methyl-2-oxo-5-(trifluoromethyl)-1,2-dihydropyridin-3-yl)urea] and CNc1n[nH]c2ncc(N3CCC(N(C)C(=O)Nc4cc(C(F)(F)F)cn(C)c4=O)CC3)cc12 [Example I-99, 1-methyl-3-(1-methyl-2-oxo-5-(trifluoromethyl)-1,2-dihydropyridin-3-yl)-1-(1-(3-(methylamino)-1H-pyrazolo[3,4-b]pyridin-5-yl)piperidin-4-yl)urea] cannot be ordered by pKd: over 8.00 for the first, over 8.00 for the second.

CN(C(=O)Nc1cc(C(F)(F)F)cn(C)c1=O)[C@H]1CCN(c2cnc3cn[nH]c3c2)C[C@H]1F [Example I-95-a, 1-((3R,4S)-3-fluoro-1-(1H-pyrazolo[4,3-b]pyridin-6-yl)piperidin-4-yl)-1-methyl-3-(1-methyl-2-oxo-5-(trifluoromethyl)-1,2-dihydropyridin-3-yl)urea] and CN(C(=O)Nc1cc(C(F)(F)F)cn(C)c1=O)[C@@H]1CCN(c2cnc3cn[nH]c3c2)C[C@@H]1F [Example I-95-b, 1-((3S,4R)-3-fluoro-1-(1H-pyrazolo[4,3-b]pyridin-6-yl)piperidin-4-yl)-1-methyl-3-(1-methyl-2-oxo-5-(trifluoromethyl)-1,2-dihydropyridin-3-yl)urea] cannot be ordered by pKd: over 8.00 for the first, over 8.00 for the second.

CN(C(=O)Nc1cc(C(F)(F)F)cn(C)c1=O)[C@H]1CCN(c2cnc3[nH]n(C)c(=O)c3c2)CC1(F)F [Example I-96-b, (S)-1-(3,3-difluoro-1-(2-methyl-3-oxo-2,3-dihydro-1H-pyrazolo[3,4-b]pyridin-5-yl)piperidin-4-yl)-1-methyl-3-(1-methyl-2-oxo-5-(trifluoromethyl)-1,2-dihydropyridin-3-yl)urea] and CNc1n[nH]c2ncc(N3CC[C@@H](N(C)C(=O)Nc4cc(C(F)(F)F)cn(C)c4=O)[C@@H](F)C3)cc12 [Example I-97-a, 1-((3S,4R)-3-fluoro-1-(3-(methylamino)-1H-pyrazolo[3,4-b]pyridin-5-yl)piperidin-4-yl)-1-methyl-3-(1-methyl-2-oxo-5-(trifluoromethyl)-1,2-dihydropyridin-3-yl)urea] cannot be ordered by pKd: over 8.00 for the first, over 8.00 for the second.

CNc1n[nH]c2ncc(N3CC[C@H](N(C)C(=O)Nc4cc(C(F)(F)F)cn(C)c4=O)[C@H](F)C3)cc12 [Example I-97-b, 1-((3R,4S)-3-fluoro-1-(3-(methylamino)-1H-pyrazolo[3,4-b]pyridin-5-yl)piperidin-4-yl)-1-methyl-3-(1-methyl-2-oxo-5-(trifluoromethyl)-1,2-dihydropyridin-3-yl)urea] showed a pKd of over 8.00.
